12 compounds from patent EP4722211A1, “FGFR2/3 SELECTIVE INHIBITOR, PHARMACEUTICAL COMPOSITION AND USE THEREOF” (Changchun Genescience Pharmaceutical Co., Ltd., priority 2023, dated 2024) can be followed below.

Read-outs that look alike come from different tables or passages of the source.

One data set deals with T1, FGFR1 (Homo sapiens, UniProt P11362).
T1 construct: purchased Invitrogen PR4660A
Briefly: Kinase inhibitory activity by HTRF method (FGFR1). The format is biochemical. The conditions noted are these: highest concentration 3000 nM, 10 concentrations, duplicate. As to the method:
(§1) The inhibitory activity of the compounds on FGFR1 and FGFR3 kinases was tested by HTRF method. The highest concentration tested was 3000 nM, which was three-fold diluted to give 10 concentrations. The test was duplicated. […]

In a further data set the target is T2, FGFR3 (Homo sapiens, UniProt P22607).
T2 construct: purchased Invitrogen PR4631B
T2 sequence (P22607 23-806): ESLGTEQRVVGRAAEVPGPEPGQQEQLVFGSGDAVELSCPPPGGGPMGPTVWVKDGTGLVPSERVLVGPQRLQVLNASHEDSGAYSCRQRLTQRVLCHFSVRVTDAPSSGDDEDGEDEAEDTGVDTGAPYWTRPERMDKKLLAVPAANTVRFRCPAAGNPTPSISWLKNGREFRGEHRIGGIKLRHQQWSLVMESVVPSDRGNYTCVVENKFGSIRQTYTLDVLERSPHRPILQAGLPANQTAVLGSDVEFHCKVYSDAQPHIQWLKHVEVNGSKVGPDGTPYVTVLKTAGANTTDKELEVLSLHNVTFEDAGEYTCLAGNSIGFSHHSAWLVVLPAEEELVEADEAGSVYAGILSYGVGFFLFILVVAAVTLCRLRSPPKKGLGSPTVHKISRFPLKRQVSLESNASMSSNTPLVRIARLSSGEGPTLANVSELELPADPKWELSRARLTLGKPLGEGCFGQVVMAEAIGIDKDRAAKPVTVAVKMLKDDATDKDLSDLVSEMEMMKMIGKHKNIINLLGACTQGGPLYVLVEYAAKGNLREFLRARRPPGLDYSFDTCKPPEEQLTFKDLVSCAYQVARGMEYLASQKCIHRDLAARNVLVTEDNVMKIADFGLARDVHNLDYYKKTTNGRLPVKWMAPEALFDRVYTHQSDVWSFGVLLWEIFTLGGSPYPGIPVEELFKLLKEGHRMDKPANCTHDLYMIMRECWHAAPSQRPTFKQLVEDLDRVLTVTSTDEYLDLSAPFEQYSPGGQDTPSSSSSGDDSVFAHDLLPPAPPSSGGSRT
The data set can be described thus: Kinase inhibitory activity by HTRF method (FGFR3). The format is biochemical. Conditions: highest concentration 3000 nM, 10 concentrations, duplicate. As to the method: as §1
For orientation: TR-FRET usually uses a lanthanide donor and a delayed reading to cut background.

In another data set the test system is Ba/F3-FGFR1 cells. Briefly: Cell proliferation inhibition, CTG method (Ba/F3-FGFR1). The format is cell-based. The conditions noted are these: 72 hrs. As to the method:
(§2) The CTG method was used to detect the inhibitory effect of the compound on the proliferation of Ba/F3-FGFR1, Ba/F3-FGFR2, Ba/F3-FGFR3, and Ba/F3-FGFR4 cells. The highest concentration tested was 3000 nM, which was three-fold diluted to give 10 concentrations. The test was duplicated.
(§3) • a) Ba/F3-FGFR1, Ba/F3-FGFR2, Ba/F3-FGFR3, and Ba/F3-FGFR4 were cultured to exponential growth period for later use. […] 30 µL of Ba/F3-FGFR1, Ba/F3-FGFR2, Ba/F3-FGFR3, or Ba/F3-FGFR4 (500/well) was uniformly seeded in a 384-well black-edge cell culture plate containing the compound, having the wells at the edge blocked with 50 µL PBS, and cultured in an incubator with CO2 at 37°C for 72 hrs. • d) 30 µL of Cell-Titer-Glo reagent was added to each well, shaken and mixed evenly on a shaker, and then incubated at 37°C for 30 min. Then the signal was detected on a microplate reader after the signal was stable.

For another data set, the system named is Ba/F3-FGFR3 cells. The data set can be described thus: Cell proliferation inhibition, CTG method (Ba/F3-FGFR3). The format is cell-based. Conditions: 72 hrs. As to the method: as §2
• a) Ba/F3-FGFR1, Ba/F3-FGFR2, Ba/F3-FGFR3, and Ba/F3-FGFR4 were cultured to exponential growth period for later use. Complete medium: RPMI1640 medium, 10% FBS, 1% GlutaMAX and P/S, 10 ng/mL FGF1, 10 µg/mL Heparin,10 µM 2-mercaptoethanol, 2 µg/mL puromycin. • b) The stock solution of the compound of 3000 nM was diluted into a 384 cell culture plate using the ECHO liquid handling station, and centrifuged at 1000 g for 1 min. • c) The cells were digested. 30 µL of Ba/F3-FGFR1, Ba/F3-FGFR2, Ba/F3-FGFR3, or Ba/F3-FGFR4 (500/well) was uniformly seeded in a 384-well black-edge cell culture plate containing the compound, having the wells at the edge blocked with 50 µL PBS, and cultured in an incubator with CO2 at 37°C for 72 hrs. • d) 30 µL of Cell-Titer-Glo reagent was added to each well, shaken and mixed evenly on a shaker, and then incubated at 37°C for 30 min. Then the signal was detected on a microplate reader after the signal was stable.

The next data set relates to Ba/F3-FGFR2 cells. Briefly: Cell proliferation inhibition, CTG method (Ba/F3-FGFR2). Type of data set: cell-based. Conditions: 72 hrs. Here is the method: as §2, §3
Another data set has as its system Ba/F3-FGFR4 cells. The data set can be described thus: Cell proliferation inhibition, CTG method (Ba/F3-FGFR4). Conditions: 72 hrs. The format is cell-based. Here is the method: as §2, §3
The nature of data set [1]: Pharmacokinetic study in SD rats after oral gavage, plasma by LC/MS/MS. The format is in vivo. The conditions noted are these: rat, 2 mg/kg, 2mpk; for AUC(0-inf): read-out: AUCINF_pred; for MRT inf: read-out: MRTINF_pred. Here is the method:
The SD rats were used as test animals. The drug concentration in plasma at different time points was determined by LC/MS/MS method after the compound of the present invention was administered to the SD rats by oral gavage. The pharmacokinetic behavior of the compound of the present invention in SD rats was studied and the pharmacokinetic characteristics were evaluated.
24 SD Rat rats (female:male 1:1), purchased from Shanghai Ji Hui Laboratory Animal Breeding Co., Ltd., animal production license SCXK (Shanghai) 2017-0012, were divided into 6 groups.
The prescription was 5% DMSO + 60% PEG300 + 35% glucose aqueous solution. A proper amount of the representative compound of the present invention (converted according to the purity and salt coefficient) was weighed. A prescribed amount of DMSO was added, and a clear and transparent solution was obtained by vortex. Then a prescribed amount of PEG300 was added, and mixed by vortex. Then, a prescribed amount of a glucose aqueous solution was added. A 0.6 mg/mL or 2 mg/mL solution was obtained. During the preparation, if a solution cannot be obtained, ultrasonication in a water bath at a temperature not higher than 60°C can be performed to facilitate the dissolution.
Rats were administered by oral gavage (2mpk) after fasting for one night.
At 15 min, 30 min, 1 hr, 2 hrs, 4 hrs, 6 hrs, 8 hrs, and 24 hrs after administration, about 30 µL blood samples were collected into an anticoagulation tube containing the anticoagulant EDTA-K2, and centrifuged within 30 minutes to obtain the plasma. The whole blood sample was placed on wet ice before centrifugation. All of the collected plasma samples were stored on dry ice or at a temperature not higher than -70°C before analysis and detection. Liquid chromatography-tandem mass spectrometry (LC/MS/MS) was used to determine the original drug concentration in the plasma and the administered solution.

Where [2] appears, read: both sexes, Sprague-Dawley (SD).

T1 sequence (P11362 22-822): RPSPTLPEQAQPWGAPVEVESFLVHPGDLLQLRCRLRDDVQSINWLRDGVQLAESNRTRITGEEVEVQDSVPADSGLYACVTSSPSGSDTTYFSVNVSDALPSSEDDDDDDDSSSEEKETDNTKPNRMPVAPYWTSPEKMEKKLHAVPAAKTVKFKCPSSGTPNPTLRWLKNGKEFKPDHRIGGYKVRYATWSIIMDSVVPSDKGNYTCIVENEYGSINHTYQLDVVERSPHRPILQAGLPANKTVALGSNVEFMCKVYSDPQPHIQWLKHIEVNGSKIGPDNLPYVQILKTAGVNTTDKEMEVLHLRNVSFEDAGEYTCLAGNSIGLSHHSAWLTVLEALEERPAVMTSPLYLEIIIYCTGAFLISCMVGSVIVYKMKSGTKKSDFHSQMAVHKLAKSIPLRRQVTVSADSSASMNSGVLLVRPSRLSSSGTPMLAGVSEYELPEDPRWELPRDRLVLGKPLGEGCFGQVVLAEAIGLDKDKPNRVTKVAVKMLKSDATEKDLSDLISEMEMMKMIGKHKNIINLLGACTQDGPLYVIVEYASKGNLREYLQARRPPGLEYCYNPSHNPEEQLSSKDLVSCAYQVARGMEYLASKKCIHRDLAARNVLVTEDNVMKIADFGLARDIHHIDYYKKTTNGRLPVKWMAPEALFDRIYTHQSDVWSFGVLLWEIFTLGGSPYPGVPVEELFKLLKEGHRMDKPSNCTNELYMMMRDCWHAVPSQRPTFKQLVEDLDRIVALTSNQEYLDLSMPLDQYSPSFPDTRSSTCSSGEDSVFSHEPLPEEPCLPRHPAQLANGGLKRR

In general, IC50 refers to the point on the concentration scale where inhibition reaches its midpoint. As for `CC(Oc1ccc2[nH]nc(-c3ccc(S(C)(=N)=O)nc3)c2n1)c1c(Cl)cncc1Cl` (single isomer, unassigned) [Cpd-01C, (5-(5-(1-(3,5-dichloropyridin-4-yl)ethoxy)-1H-pyrazolo[4,3-b]pyridin-3-yl)pyridin-2-yl)(imino)(methyl)-λ^6-sulfonyl ketone], the IC50 stood at 34.8 nM on FGFR1 and 4.8 nM against FGFR3.

As for `CC(Oc1ccc2[nH]nc(-c3ccc(S(C)(=N)=O)nc3)c2n1)c1c(Cl)cncc1Cl` (single isomer, unassigned) [Cpd-01D, (5-(5-(1-(3,5-dichloropyridin-4-yl)ethoxy)-1H-pyrazolo[4,3-b]pyridin-3-yl)pyridin-2-yl)(imino)(methyl)-λ^6-sulfonyl ketone], the IC50 against FGFR1 was determined as 36.1 nM; at FGFR3, 6.2 nM.

With `C[C@@H](Oc1ccc2[nH]nc(-c3ccc(C4=CCS(=O)(=O)CC4)nc3)c2n1)c1c(Cl)cncc1Cl` [Cpd-02A, (R)-4-(5-(5-(1-(3,5-dichloropyridin-4-yl)ethoxy)-1H-pyrazolo[4,3-b]pyridin-3-yl)pyridin-2-yl)-3,6-dihydro-2H-thiopyran 1,1-dioxide], the IC50 in the data set with Ba/F3-FGFR1 cells was 23.9 nM; in the data set on Ba/F3-FGFR3 cells, 5.06 nM.

As usually defined, the AUC(0-t) is the area under the concentration-time curve up to a stated or last time point. A lower AUC(0-t) goes with less exposure. The Cmax is the peak of the concentration-time curve. In general, Tmax refers to the time at which the peak concentration occurs. As usually defined, the half-life is the time in which the quantity being followed falls by half. With `C[C@@H](Oc1ccc2[nH]nc(-c3cnc(C4=CCS(=O)(=O)CC4)c(F)c3)c2n1)c1c(Cl)cncc1Cl` [Cpd-03A, (R)-4-(5-(5-(1-(3,5-dichloropyridin-4-yl)ethoxy)-1H-pyrazolopyridin-3-yl)-3-fluoropyridin-2-yl)-3,6-dihydro-2H-thiapyran 1,1-dioxide], the midpoint of inhibition in the data set on Ba/F3-FGFR1 cells, the IC50, lay at 14.2 nM. This compound came in with an IC50 in the data set with Ba/F3-FGFR2 cells of 8.4 nM. The compound also returned a half-inhibitory concentration (IC50) with Ba/F3-FGFR3 cells of 4.2 nM. Besides, half-maximal inhibition in the data set on Ba/F3-FGFR4 cells (IC50) required 33.8 nM. Besides, in data set [1], the AUC(0-t) is 86.2 ng·h/mL, the highest level (Cmax) was 24.4 ng/mL, the Tmax was found to be 1 h and the half-life was 1.5 h. In data set [1], the AUC(0-inf) was determined as 91.5 ng·h/mL and the MRT inf was 2 h.

As for `C[C@@H](Oc1ccc2[nH]nc(-c3ccc(N4CCN(S(C)(=O)=O)CC4)nc3)c2n1)c1c(Cl)cncc1Cl` [Cpd-119A], the IC50 in the data set on Ba/F3-FGFR1 cells turned out to be 45.9 nM; in the data set on Ba/F3-FGFR3 cells, 7.3 nM.

On to `C[C@@H](Oc1ccc2[nH]nc(-c3ccc(N4CCC(C(C)(C)O)CC4)nc3)c2n1)c1c(Cl)cncc1Cl` [Cpd-124A], for which the IC50 in the data set with Ba/F3-FGFR1 cells was found to be 123 nM; with Ba/F3-FGFR2 cells it was 16.7 nM; in the data set with Ba/F3-FGFR3 cells it was 13.6 nM; in the data set on Ba/F3-FGFR4 cells, 80.4 nM.

Take `Cc1nn(C2CC2)cc1-c1ccc(-c2n[nH]c3ccc(O[C@H](C)c4c(Cl)cncc4Cl)nc23)cn1` [Cpd-145A, (R)-3-(6-(1-cyclopropyl-3-methyl-1H-pyrazol-4-yl)pyridin-3-yl)-5-(1-(3,5-dichloropyridin-4-yl)ethoxy)-1H-pyrazolo[4,3-b]pyridine]: in the data set with Ba/F3-FGFR1 cells, the IC50 came out at 31.4 nM. The compound also displayed a concentration for half-maximal inhibition (IC50) with Ba/F3-FGFR2 cells of 10.6 nM. Moreover, the IC50 in the data set on Ba/F3-FGFR3 cells turned out to be 9.7 nM. This compound came in with an IC50 in the data set on Ba/F3-FGFR4 cells of 76.3 nM. Moreover, in data set [1] (setting [2]), the exposure AUC(0-t) is 1570 ng·h/mL, the Cmax is 186 ng/mL, the Tmax stood at 2 h and the half-life is 4 h. Also, in data set [1] (setting [2]), the AUC(0-inf) was 1610 ng·h/mL and the MRT inf is 5.6 h.

Turning to `Cc1nn(CC(C)(C)O)c(C)c1-c1ccc(-c2n[nH]c3ccc(O[C@H](C)c4c(Cl)cncc4Cl)nc23)cn1` [Cpd-158A], the IC50 in the data set with Ba/F3-FGFR1 cells is 23.6 nM; in the data set with Ba/F3-FGFR2 cells it was 2 nM; in the data set on Ba/F3-FGFR3 cells, 2.6 nM; with Ba/F3-FGFR4 cells it was 55.4 nM.

In the case of `Cc1nn(CC(C)(C)O)c(C)c1-c1ncc(-c2n[nH]c3ccc(O[C@H](C)c4c(Cl)cncc4Cl)nc23)cc1F` [Cpd-161A, (R)-1-(4-(5-(5-(1-(3,5-dichloropyridin-4-yl)ethoxy)-1H-pyrazolo[4,3-b]pyridin-3-yl)-3-fluoropyridin-2-yl)-3,5-dimethyl-1H-pyrazol-1-yl)-2-methyl-2-propanol], the IC50 in the data set with Ba/F3-FGFR1 cells was found to be 98.3 nM; with Ba/F3-FGFR2 cells, 11.7 nM; in the data set on Ba/F3-FGFR3 cells, 15.4 nM; in the data set with Ba/F3-FGFR4 cells, 237 nM.

Consider `Cc1nn(CC(C)(C)O)cc1-c1ncc(-c2n[nH]c3ccc(O[C@H](C)c4c(Cl)cncc4Cl)nc23)cc1F` [Cpd-162A, (R)-1-(4-(5-(5-(1-(3,5-dichloropyridin-4-yl)ethoxy)-1H-pyrazolo[4,3-b]pyridin-3-yl)-3-fluoropyridin-2-yl)-3-methyl-1H-pyrazol-1-yl)-2-methyl-2-propanol], for which the IC50 in the data set on Ba/F3-FGFR1 cells was 32.6 nM; with Ba/F3-FGFR2 cells it was 3.6 nM; with Ba/F3-FGFR3 cells, 4 nM; with Ba/F3-FGFR4 cells, 29.8 nM.

In the data set with Ba/F3-FGFR1 cells, `Cc1cc2[nH]nc(-c3ccc(-c4c(C)nn(CC(C)(C)O)c4C)nc3)c2nc1O[C@H](C)c1c(Cl)cncc1Cl` [Cpd-175A, (R)-1-(4-(5-(5-(1-(3,5-dichloropyridin-4-yl)ethoxy)-6-methyl-1H-pyrazolo[4,3-b]pyridin-3-yl)pyridin-2-yl)-3,5-dimethyl-1H-pyrazol-1-yl)-2-methyl-2-propanol] displayed a half-inhibitory concentration (IC50) of 31.5 nM. Further, in the data set on Ba/F3-FGFR2 cells, the IC50 turned out to be 3.5 nM. This compound displayed an IC50 in the data set on Ba/F3-FGFR3 cells of 4.9 nM. The midpoint of inhibition in the data set with Ba/F3-FGFR4 cells, the IC50, lay at 72.9 nM. For the same compound, in data set [1] (setting [2]), the AUC(0-t) came out at 359 ng·h/mL, the Cmax was determined as 82.6 ng/mL, the Tmax amounted to 2 h and the half-life was 3.2 h. In addition, in data set [1] (setting [2]), the AUC(0-inf) amounted to 508 ng·h/mL and the MRT inf stood at 3.5 h.

Consider `CCN1CCN(c2ccc(Nc3cc(N(C)C(=O)Nc4c(Cl)c(OC)cc(OC)c4Cl)ncn3)cc2)CC1` [Infigratinib, reference compound], for which half-maximal inhibition in the data set on Ba/F3-FGFR1 cells (IC50) was put at 8.1 nM. In the data set with Ba/F3-FGFR2 cells, this compound showed an IC50 of 4 nM. The same compound registered an IC50 in the data set on Ba/F3-FGFR3 cells of 11.9 nM. The IC50 in the data set with Ba/F3-FGFR4 cells was 277 nM. In addition, in data set [1] (setting [2]), the AUC(0-t) worked out at 103 ng·h/mL, the Cmax is 22.2 ng/mL, the time to peak (Tmax) was determined as 3 h and the half-life is 1.1 h. In data set [1] (setting [2]), the AUC(0-inf) amounted to 106 ng·h/mL and the MRT inf was 3.1 h.
